Values joined by “and” are separate entries in the source; they are usually repeats but may differ in a detail not shown here. Equal entries are not always repeated.
Key:
[1] = Nilotinib levels in liver and DRG of mice; assay type: in vivo, mouse; conditions: OATP1B2(-/-) mice; for concentration at […]: DBA/1LacJ, mouse, liver, oral, Liver nilotinib
Procedure: injection at a dose of 1 mg/kg. Whole blood samples were collected 0.08, 0.25, 0.5, 1, and 4 h, and livers were collected at the final time point.
Finally, the beads were removed, and the homogenized samples were stored at -80°C until analysis by LC-MS/MS.
Pharmacokinetic parameters were calculated by non -compartmental analysis using Phoenix WinNonlin version 8.0 (Certara). Peak plasma concentration (C max) was determined by visual inspection of the data from the concentration-time curves. The linear trapezoidal rule was used to obtain the area under the plasma concentration-time curve (AUC), and drug levels in tissues were corrected for
Quantiva triple quadrupole mass spectrometer from Thermo Fisher Scientific was used for LC-MS/MS
An Accucore aQ column (150 × 2.1 mm, dp = 2.6 μm, Thermo Fisher Scientific) was protected
volume was 5.0 μL. The temperature of the autosampler rack was 4°C, and the temperature of the
column was maintained at 50°C. Mobile phase A consisted of water with 0.1% (v/v) formic acid and
mobile phase B consisted of acetonitrile: methanol (1:1) with 0.1% (v/v) formic acid.
assay setting with the positive voltage applied to the ESI capillary was set at 4000 V, and the capillary

hOATP1B1 = biological target: T1, hOATP1B1 (Homo sapiens, UniProt Q9Y6L6); experiment: Inhibition of vincristine uptake in HEK293 cells overexpressing hOATP1B1; conditions: inhibitor 15 min pre-treatment
T1 sequence (Q9Y6L6 1-691): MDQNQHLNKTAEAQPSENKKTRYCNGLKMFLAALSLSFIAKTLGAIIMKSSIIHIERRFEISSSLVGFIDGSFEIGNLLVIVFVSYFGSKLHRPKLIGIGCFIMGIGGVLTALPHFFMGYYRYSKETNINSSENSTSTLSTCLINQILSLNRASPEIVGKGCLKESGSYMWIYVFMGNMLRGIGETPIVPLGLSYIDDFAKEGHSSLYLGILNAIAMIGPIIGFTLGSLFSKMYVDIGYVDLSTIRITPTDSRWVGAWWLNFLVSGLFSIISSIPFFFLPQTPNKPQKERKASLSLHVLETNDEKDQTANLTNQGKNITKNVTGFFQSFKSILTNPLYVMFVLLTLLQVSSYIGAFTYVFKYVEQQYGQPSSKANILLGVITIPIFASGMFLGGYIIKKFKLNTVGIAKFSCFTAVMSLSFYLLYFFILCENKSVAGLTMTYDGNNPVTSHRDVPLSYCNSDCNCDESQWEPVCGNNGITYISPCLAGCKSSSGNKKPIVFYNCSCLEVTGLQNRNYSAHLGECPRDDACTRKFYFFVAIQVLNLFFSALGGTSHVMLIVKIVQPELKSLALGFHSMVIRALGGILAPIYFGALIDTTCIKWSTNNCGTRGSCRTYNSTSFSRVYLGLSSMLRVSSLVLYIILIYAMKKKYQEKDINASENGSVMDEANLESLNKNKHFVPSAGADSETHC

hOATP1B3 = biological target: T2, hOATP1B3 (Homo sapiens, UniProt Q9NPD5); experiment: Inhibition of vincristine uptake in HEK293 cells overexpressing hOATP1B3; conditions: inhibitor 15 min pre-treatment
T2 sequence (Q9NPD5 1-702): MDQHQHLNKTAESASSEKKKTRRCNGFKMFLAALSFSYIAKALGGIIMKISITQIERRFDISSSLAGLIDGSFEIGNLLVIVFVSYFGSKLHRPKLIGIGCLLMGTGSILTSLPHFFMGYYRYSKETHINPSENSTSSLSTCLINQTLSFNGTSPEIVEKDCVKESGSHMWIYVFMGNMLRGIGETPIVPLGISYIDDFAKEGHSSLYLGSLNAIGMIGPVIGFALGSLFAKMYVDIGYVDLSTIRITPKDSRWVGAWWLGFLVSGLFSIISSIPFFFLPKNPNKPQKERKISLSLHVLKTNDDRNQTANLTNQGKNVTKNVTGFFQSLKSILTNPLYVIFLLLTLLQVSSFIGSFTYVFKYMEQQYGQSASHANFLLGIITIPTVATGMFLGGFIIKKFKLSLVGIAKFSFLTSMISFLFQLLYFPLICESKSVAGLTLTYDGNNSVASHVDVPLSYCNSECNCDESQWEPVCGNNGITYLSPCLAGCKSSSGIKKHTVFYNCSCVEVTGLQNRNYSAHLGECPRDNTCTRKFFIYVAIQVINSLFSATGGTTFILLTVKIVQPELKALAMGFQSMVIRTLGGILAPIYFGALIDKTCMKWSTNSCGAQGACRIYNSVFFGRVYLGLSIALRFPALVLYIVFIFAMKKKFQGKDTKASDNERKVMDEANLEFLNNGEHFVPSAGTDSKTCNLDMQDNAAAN

[2] = Plasma pharmacokinetics of nilotinib in mice; assay type: in vivo, mouse; conditions: OATP1B2(-/-) mice; for concentration at […]: DBA/1LacJ, mouse, plasma, oral, Plasma concentration of nilotinib
Procedure: Pharmacokinetic studies. Pharmacokinetic studies were performed following an established protocol […]
0.5% hydroxypropyl-methylcellulose in water) was administered at a dose of 10 mg/kg . Serial whole blood samples (0.25, 0.5, 1, 2, 4, and 6 h) were collected from the submandibular vein for the initial three time - points, from the retro-orbital sinus vein for the subsequent two time-points, and cardiac puncture at the terminal time-point. Blood samples were centrifuged at 11,000 rpm for 5 min, and the plasma supernatants collected and stored at -80°C until analysis by a validated method based on reversed -phase liquid chromatography coupled to tandem mass-spectrometric detection (LC-MS/MS). Livers were collected from the same animals at endpoint and, to prevent continuing metabolic activity, tissues were snap frozen using liquid nitrogen. […]
mg/kg or 100 mg/kg, and after 1.5 h, plasma, liver, and whole DRG were collected. All plasma and tissue specimens were stored at -80°C until further processing. […]
were collected at the final time point. […]
specimens were stored at -80°C until further processing. All tissues were homogenized with 5-mm […]
Finally, the beads were removed, and
WinNonlin version 8.0 (Certara). […]
of the data from the concentration-time curves.
Determination of drug levels. […]
column was maintained at 50°C.

mice = experiment: Open field locomotion, Basso Mouse Scale (BMS); assay type: in vivo; set-up: key: BMS score: higher = better hindlimb locomotion; normal = 9
Procedure: where the distance between two adjacent rungs is changeable (1-5 cm). The elevated ladder tests were initiated after mice had been acclimated to their surrounding for at least 4 h. The mice were placed at one end of the ladder and encouraged to move forward by a food reward at the other end of the ladder. If a […]
counted by an electrical counter. Experiments were repeated 3 times for each mouse, and an average of the three trials was used for analysis. Open-field locomotion was assessed with the Basso Mouse Scale (BMS) rating system (7). The open field was a round table that was 20.32 cm high and 1.524 m in diameter situated in a quiet testing room with normal lighting. The mice were acclimated to the testing table for 20 min daily for a week before drug administration. Two analysts blinded to the composition of the treatment groups simultaneously scored hindlimb locomotion for 4 min per mouse using a score sheet described previously (7). Parameters of interest included paw position (rotated in, rotated out, parallel placement), trunk stability, tail position, coordination, and plantar and dorsal support. Quantification was based on a scoring system where conditional variables are given a numerical representation in each category. A higher number correlates to better hindlimb locomotor function and ‘normal’ behavior scores a 9; conversely, a lower number represents abnormal locomotion. […]
by an automated ladder test. […]
using the mean Basso Mouse Scale for Locomotion (BMS) score. There were no pronounced differences […]
statistically significant.
(also on this page, place not known: Baseline Day 1 Day 2 Day 3 0 5 10 15 20 25 Number missed steps Wild-type Baseline Day 1 Day 2 Day 3 0 5 10 BMS Wild-type ns A B OATP1B2(-/-) OATP1B2(-/-) score of behavior. ns)

| concentration at […] ([1]; 25 mg/kg) [ng/g] | concentration at […] ([1]; 100 mg/kg) [ng/g] | concentration at […] ([2]; 25 mg/kg) [ng/mL] | concentration at […] ([2]; 100 mg/kg) [ng/mL] | Plasma concentration of nilotinib ([2]; 25mg/kg) | Plasma concentration of nilotinib ([2]; 100mg/kg) | Compound | Liver nilotinib ([1]; 25mg/kg) | Liver nilotinib ([1]; 100mg/kg) | Vincristine uptake (% of vehicle) (hOATP1B1) | Vincristine uptake (% of vehicle) (hOATP1B3) | BMS score (mice; OATP1B2(-/-) mice, Day 1) | BMS score (mice; OATP1B2(-/-) mice, Day 2) | BMS score (mice; OATP1B2(-/-) mice, Day 3) | BMS score (mice; Wild-type mice, Day 1) | BMS score (mice; Wild-type mice, Day 2) | BMS score (mice; Wild-type mice, Day 3) | Basso Mouse Scale for Locomotion (BMS) score, average (mice; wild-type and OATP1B2(-/-) mice, single i.p. dose 1 mg/kg, up to 3 days) |
| --- | --- | --- | --- | --- | --- | --- | --- | --- | --- | --- | --- | --- | --- | --- | --- | --- | --- |
| 11900 | 33700 | 8020 | 25800 | 9973.68 ng/mL and 13343.6 ng/mL | 22063.7 ng/mL and 33922 ng/mL | Cc1cn(-c2cc(NC(=O)c3ccc(C)c(Nc4nccc(-c5cccnc5)n4)c3)cc(C(F)(F)F)c2)cn1 [Nilotinib, nilotinib] | 14.24 ng/mg tissue and 15.56 ng/mg tissue | 30.37 ng/mg tissue and 41.94 ng/mg tissue | 101.303 % of vehicle and 90.7094 % of vehicle and 62.8074 % of vehicle and 106.906 % of vehicle and 107.581 % of vehicle and 108.402 % of vehicle | 56.9618 % of vehicle and 79.3107 % of vehicle and 46.7964 % of vehicle and 63.7354 % of vehicle and 65.1694 % of vehicle and 69.9849 % of vehicle | – | – | – | – | – | – | – |
| – | – | – | – | – | – | CC[C@]1(O)C[C@H]2CN(CCc3c([nH]c4ccccc34)[C@@](C(=O)OC)(c3cc4c(cc3OC)N(C=O)[C@H]3[C@@](O)(C(=O)OC)[C@H](OC(C)=O)[C@]5(CC)C=CCN6CC[C@]43[C@@H]65)C2)C1 [Vincristine, vincristine] | – | – | – | – | 9 | 9 | 9 | 9 and 8 | 9 and 8 | 9 | 9 |

Source: paper PMC10443802, “Targeting a xenobiotic transporter to ameliorate vincristine-induced sensory neuropathy” (JCI Insight, 2023)
